We go through 9 compounds from patent US20080194653A1, “Therapeutic Agent For Solid Tumor” (KYOWA HAKKO KOGYO CO., LTD., priority 2005, published 2008).

A word on the melting point: it is the temperature, or range, at which the solid turns liquid.

Counter-ions that a name gives are not always drawn.

The target in data set [1] is T1, recombinant human Eg5 motor domain protein (Homo sapiens, UniProt P52732).
T1 construct: A plasmid expressing the motor domain of human Eg5 was constructed; made in house; host or cells: Escherichia coli BL21 (DE3)
T1 sequence (P52732 18-359 limits assumed): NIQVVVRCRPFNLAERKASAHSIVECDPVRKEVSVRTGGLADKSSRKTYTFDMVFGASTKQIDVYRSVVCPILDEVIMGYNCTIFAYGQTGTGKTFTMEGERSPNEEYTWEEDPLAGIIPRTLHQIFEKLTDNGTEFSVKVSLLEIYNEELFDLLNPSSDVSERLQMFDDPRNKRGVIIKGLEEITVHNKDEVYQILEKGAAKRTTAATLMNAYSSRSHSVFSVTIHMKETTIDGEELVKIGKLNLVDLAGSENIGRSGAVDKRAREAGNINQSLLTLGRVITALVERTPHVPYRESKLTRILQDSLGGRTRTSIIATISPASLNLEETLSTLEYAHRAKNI
In words: Eg5 enzyme inhibition test (ATPase activity). The class given is biochemical. To be noted: for IC50: 30° C., 30 minutes, absorbance at 360 nm, read-out: Inhibition ratios (IC50) on the ATPase activity of Eg5. Here is the method: A recombinant human Eg5 motor domain protein was prepared by referring to the literature [Biochemistry, Vol. 35, p. […] A plasmid expressing the motor domain of human Eg5 was constructed, and transformed into Escherichia coli BL21 (DE3). The transformant was cultured at 25° C., and when the OD600 reached 0.74, isopropyl-β-D-thiogalactoside was added at a final concentration of 0.5 mmol/L. The transformant was further cultured for 4 hours, and then the culture medium was centrifuged to collect the cells. The cells were suspended in a buffer and ultrasonicated, and then the sonicated solution was centrifuged to recover the supernatant. The supernatant was purified by cation exchange column chromatography to obtain a partially purified sample. Furthermore, the partially purified sample was purified by gel filtration column chromatography to obtain a finally purified sample.
Measurement of the ATPase activity of Eg5 was carried out by referring to the literatures [EMBO Journal, Vol. 13, p. […] Solution A was dispensed into each well of a 96-well plate as 45 μL portions. Solution B was used to serially dilute a test compound. The diluted test compound solutions in a volume of 30 μL were mixed with Solution A added beforehand in each well of the 96-well plate to start the enzymatic reaction. The enzymatic reaction was performed at 30° C. for 30 minutes. […] The relative activity was calculated to calculate IC50 value.

The subject of data set [2] is human pancreatic cancer MIA PaCa-2 cells. As to the kind of experiment: Cell growth inhibition test against pancreatic cancer cells (XTT). The settings on record: read-out: GI50 value (concentration of 50% growth inhibition). The data set is classed as cell-based. Here is the method:
(§1) A549 cells (1000 cells/well), SK-OV-3 cells (2000 cells/well), or HCT 116 cells (1000 cells/well) were seeded in each well of 96-well plates (Nunc, catalog No. 167008), and cultured overnight. Test compounds diluted stepwise were added, and the cells were further cultured for 72 hours (final volume: 100 μL/well). Fifty μL XTT labeling mixture of Cell Proliferation Kit II (XTT) (Roche Diagnostics, catalog No. 1465015) was added to each well, and the plates were incubated at 37° C. After 1 to 3 hours, absorbance at 490 nm (reference wavelength: 655 nm) was measured with a plate reader (Molecular Device, SpectraMax 340PC^384). Growth ratios of the cells in the wells treated with the test compounds were calculated based on the growth ratio of the cells in the control well treated with solvent (dimethyl sulfoxide (DMSO)) for 72 hours, which was defined as 100%.
(§2) As cancer cell lines, human pancreatic cancer MIA PaCa-2 cells (JCRB No. 0070), human cervical cancer HeLa cells (ATCC No. CCL-2), human breast cancer MDA-MB-468 cells (ATCC No. HTB-132), human prostate cancer DU 145 cells (ATCC No. HTB-81), human skin cancer SK-MEL-28 cells (ATCC No. HTB-72), human head and neck cancer KB cells (JCRB No. 9027), human renal cancer 786-0 cells (ATCC No. CRL-1932), and human liver cancer Hep G2 cells (ATCC No. HB-8065) were used. The cells were cultured at 37° C. in a 5% carbon dioxide atmosphere (except for the human breast cancer MDA-MB-468 cells, which were cultured under the condition at 37° C.) by using the mediums mentioned below, respectively.
(§3) In the same manner as that in Test Example 1, the cells were seeded (500 to 4000 cells/well, respectively) in each well of 96-well plates (Nunc, catalog No. 167008), and growth ratios of the cells treated with test compounds were calculated. The measurement of absorbance was performed at 1.5 to 3 hours after the addition of the XTT labeling mixture.
In general terms: Tetrazolium dyes change colour on reduction, which living cells bring about.

Data set [3] relates to human ovarian cancer SK-OV-3 cells. In words: Cell growth inhibition test against ovarian cancer cells (XTT). The data set is classed as cell-based. To be noted: read-out: GI50 value (concentration of 50% growth inhibition), 72 hours. Here is the method: (§4) As cancer cell lines, human lung cancer A549 cells (ATCC No. CCL-185), human ovarian cancer SK-OV-3 cells (ATCC No. HTB-77), and human colon cancer HCT 116 cells (ATCC No. CCL-247) were used. For the culture of A549 cells, Nutrient Mixture F-12K medium (Invitrogen, catalog No. 21127-022) containing 10% fetal bovine serum (Invitrogen, catalog No. 10099-141), 100 units/mL penicillin (Invitrogen, catalog No. 15140-122), and 100 μg/mL streptomycin (Invitrogen, catalog No. 15140-122) was used. For the culture of SK-OV-3 cells and HCT 116 cells, McCoy's 5A medium (Invitrogen, catalog No. 16600-082) containing 10% fetal bovine serum (Invitrogen, catalog No. 10099-141), 100 units/mL penicillin (Invitrogen, catalog No. 15140-122), and 100 μg/mL streptomycin (Invitrogen, catalog No. 15140-122) was used. The cells were cultured at 37° C. in a 5% carbon dioxide atmosphere.
as §1

Data set [4] has as its system human lung cancer A549 cells. In words: Cell growth inhibition test against lung cancer cells (XTT). The data set is classed as cell-based. To be noted: read-out: GI50 value (concentration of 50% growth inhibition), 72 hours. Here is the method: as §4, §1
Data set [5] relates to human head and neck cancer KB cells. In words: Cell growth inhibition test against head and neck cancer cells (XTT). The settings on record: read-out: GI50 value (concentration of 50% growth inhibition). The class given is cell-based. Here is the method: as §1, §2, §3
Data set [6] concerns human renal cancer 786-0 cells. As to the kind of experiment: Cell growth inhibition test against renal cancer cells (XTT). The data set is classed as cell-based. To be noted: read-out: GI50 value (concentration of 50% growth inhibition). Here is the method: as §1, §2, §3
In data set [7] the test system is human prostate cancer DU 145 cells. In words: Cell growth inhibition test against prostate cancer cells (XTT). The class given is cell-based. To be noted: read-out: GI50 value (concentration of 50% growth inhibition). Here is the method:
as §1, §2, §3

The test system of data set [8] is human skin cancer SK-MEL-28 cells. As to the kind of experiment: Cell growth inhibition test against skin cancer cells (XTT). The class given is cell-based. To be noted: read-out: GI50 value (concentration of 50% growth inhibition). Here is the method: as §1, §2, §3
Data set [9] concerns human cervical cancer HeLa cells. As to the kind of experiment: Cell growth inhibition test against cervical cancer cells (XTT). The class given is cell-based. To be noted: read-out: GI50 value (concentration of 50% growth inhibition). Here is the method: as §1, §2, §3
Data set [10] has as its system human breast cancer MDA-MB-468 cells. As to the kind of experiment: Cell growth inhibition test against breast cancer cells (XTT). The data set is classed as cell-based. To be noted: read-out: GI50 value (concentration of 50% growth inhibition). Here is the method:
as §1, §2, §3

In data set [11] the test system is human colon cancer HCT 116 cells. As to the kind of experiment: Cell growth inhibition test against colon cancer cells (XTT). To be noted: read-out: GI50 value (concentration of 50% growth inhibition), 72 hours. The class given is cell-based. Here is the method:
as §4, §1

Data set [12] relates to human liver cancer Hep G2 cells. In words: Cell growth inhibition test against liver cancer cells (XTT). The class given is cell-based. The settings on record: HepG2, read-out: GI50 value (concentration of 50% growth inhibition). Here is the method:
as §1, §2, §3

The compound `CC(C)(C)C(=O)NC1=NN(C(=O)C(C)(C)C)C(CN)(c2ccccc2)S1` (stereo not drawn) (as salt: hydrochloride) [Compound j, N-[5-Aminomethyl-4-(2,2-dimethylpropionyl)-5-phenyl-4,5-dihydro-1,3,4-thiadiazol-2-yl]-2,2-dimethylpropanamide] yielded a melting point of 175 to 182 °C.
As for `CCNCCS(=O)(=O)NCCC1(c2ccccc2)SC(NC(=O)C(C)(C)C)=NN1C(=O)C(C)(C)C` (racemic) [Compound 14, N-{4-(2,2-Dimethylpropionyl)-5-[2-(2-ethylaminoethanesulfonylamino)ethyl]-5-phenyl-4,5-dihydro-1,3,4-thiadiazol-2-yl}-2,2-dimethylpropanamide], the “Inhibition of the ATPase activity of Eg5 (in words)” value (from here on “Inhibition”) in [1] is “inhibited the ATPase activity of Eg5 in a concentration-dependent manner”.
Consider `CCC(=O)N1N=C(NC(=O)C(C)(C)C)SC1(CCNS(C)(=O)=O)c1ccccc1` (single isomer, unassigned; (-)) [Compound b, (−)-N-[5-(2-Methanesulfonylaminoethyl)-5-phenyl-4-propionyl-4,5-dihydro-1,3,4-thiadiazol-2-yl]-2,2-dimethylpropanamide], for which the GI50 in data set [2], in data set [3], in data set [4], in data set [5], in data set [6] and in data set [7] was under 10 µM throughout. Moreover, the GI50 is under 10 µM in [8], under 10 µM in [9], under 10 µM in [10] and under 0.1 µM in [11]. Besides, the “Inhibition” value in data set [1] is “inhibited the ATPase activity of Eg5 in a concentration-dependent manner”. Further, the IC50 in [1] was under 0.1 µM.
`CC(C)(C)C(=O)N1N=C(N2CCCC2=O)SC1(CCNS(C)(=O)=O)c1ccccc1` (single isomer, unassigned; (-)) [Compound c, (−)-N-{2-[3-(2,2-Dimethylpropionyl)-5-(2-oxopyrrolidin-1-yl)-2-phenyl-2,3-dihydro-1,3,4-thiadiazol-2-yl]ethyl}methanesulfonamide]: the melting point was in the range of 107 to 110 °C.
As to `CC(=O)N1N=C(NC(=O)C(C)(C)C)SC1(CCNS(C)(=O)=O)c1ccccc1` (single isomer, unassigned; (-)) [Compound f, (−)-N-[4-Acetyl-5-(2-methanesulfonylaminoethyl)-5-phenyl-4,5-dihydro-1,3,4-thiadiazol-2-yl]-2,2-dimethylpropanamide], the melting point lay within 187 to 190 °C.
Take `CC(=O)N1N=C(N2CCCCC2=O)SC1(CCNS(C)(=O)=O)c1ccccc1` (single isomer, unassigned; (-)) [Compound h, (−)-N-{2-[3-Acetyl-5-(2-oxopiperidino)-2-phenyl-2,3-dihydro-1,3,4-thiadiazol-2-yl]ethyl}methanesulfonamide]: the melting point was in the range of 169 to 171 °C. The GI50 in data set [2] is under 10 µM. Further, the GI50 in [3] was under 10 µM. For the same compound, in data set [4], the GI50 was under 10 µM. Besides, the GI50 in data set [5] is under 10 µM. Further, in [1], the “Inhibition” value is given as “inhibited the ATPase activity of Eg5 in a concentration-dependent manner” and the IC50 is under 0.1 µM. In addition, the GI50 in data set [6] was under 10 µM. The GI50 in data set [7] was under 10 µM. For the same compound, the GI50 in data set [8] was under 10 µM. In [9], the GI50 was under 10 µM. For the same compound, in [10], the GI50 is under 10 µM. Also, in data set [11], the GI50 is under 0.1 µM.
Consider `CCNCCS(=O)(=O)NCC1(c2ccccc2)SC(NC(=O)C(C)(C)C)=NN1C(=O)C(C)(C)C` (single isomer, unassigned; (-)) [Compound l, (−)-N-[4-(2,2-Dimethylpropionyl)-5-(2-ethylaminoethanesulfonylamino-methyl)-5-phenyl-4,5-dihydro-1,3,4-thiadiazol-2-yl]-2,2-dimethylpropanamide], for which the GI50 in data set [2], in data set [12], in [3], in data set [4], in data set [5] and in data set [6] was under 10 µM throughout. For the same compound, the GI50 is under 10 µM in data set [7], under 10 µM in data set [8], under 10 µM in data set [9] and under 0.1 µM in [11]. Also, in data set [1], the “Inhibition” value was “inhibited the ATPase activity of Eg5 in a concentration-dependent manner”. In addition, the IC50 in [1] is under 0.1 µM.
Compound `CC(=O)N1N=C(N2CCCC2=O)SC1(CCNS(C)(=O)=O)c1ccccc1` (stereo not drawn) [Compound g, N-{2-[3-Acetyl-5-(2-oxopyrrolidin-1-yl)-2-phenyl-2,3-dihydro-1,3,4-thiadiazol-2-yl]ethyl}methanesulfonamide] displayed a melting point of 137 to 140 °C.
With `CC(C)(C)C(=O)NC1=NN(C(=O)C(C)(C)C)C(CN)(c2ccccc2)S1` (stereo not drawn) [Compound j, N-[5-Aminomethyl-4-(2,2-dimethylpropionyl)-5-phenyl-4,5-dihydro-1,3,4-thiadiazol-2-yl]-2,2-dimethylpropanamide], the GI50 was under 10 µM in data set [3], under 10 µM in data set [4] and under 0.1 µM in data set [11].
